{"source": "patent US8802723B2", "about": "“Metabolic syndrome-improving agent and medicine, supplement, functional food and food additive containing the same” (ARKRAY, Inc., priority 2005, dated 2014)", "key": {"adiponectin mRNA": {"system": "adiponectin mRNA", "assay": "adiponectin mRNA expression in differentiated 3T3-L1 adipocytes (Light Cycler)", "assay_type": "cell-based", "conditions": "3T3-L1, 7 days after differentiation induction, non-treatment control = 100, average ± standard error", "method": "(§1) Differentiation Induction Medium (0.25 μM DEX, 0.5 mM MIX, 10 μg/mL Insulin/10% FBS/DMEM)\n(§2) 55 mL of FBS (fetal bovine serum (manufactured by GIBCO)) was added to 500 mL of DMEM (manufactured by SIGMA) so as to prepare 10% FBS/DMEM. To this 10% FBS/DMEM, 138.75 μL of 1 mM DEX (dexamethasone)/DMSO (manufactured by Nacalai Tesque, Inc.) and 555 μL of 10 mg/mL insulin/PBS (manufactured by SIGMA) were added. Incidentally, the insulin/PBS was obtained by adding 1N HCl to PBS in advance so as to make the solution acidic enough to allow insulin dissolution and then dissolving insulin. […]\n(§3) Next, culture preadipocytes 3T-L1 were thawed, inoculated in a 100 mm dish and cultured until 3T3-L 1 cells reached about 80% confluence. […] 7 days after the initiation of the differentiation induction, mRNA was extracted using Sepasol(R)—RNA I super (manufactured by Nacalai Tesque, Inc.), and the mRNA expression amounts of 36B4, aP2 and adiponectin, which were indicators of an early period of adipocyte differentiation, were measured using Light Cycler™. Also, the medium 7 days after the differentiation induction was taken in an amount of 1 mL from each well, and the amount of adiponectin in the medium supernatant was measured using a mouse/rat adiponectin ELISA kit (trade name) (manufactured by Otsuka Pharmaceutical Co., Ltd.). […]"}, "aP2 mRNA": {"system": "aP2 mRNA", "assay": "aP2 mRNA expression in differentiated 3T3-L1 adipocytes (Light Cycler)", "assay_type": "cell-based", "conditions": "3T3-L1, 7 days after differentiation induction, non-treatment control = 100, average ± standard error", "method": "as §1, §2, §3"}}, "data": [{"smiles": "CC(C)=CCC/C(C)=C/COc1ccc2ccc(=O)oc2c1", "note": "[Aurapten, aurapten]", "values": [{"measurement": "Adiponectin mRNA expression amount (ratio to 36B4)", "setting": "adiponectin mRNA; aurapten 1 μM", "result": "144.5 ± 26.7"}, {"measurement": "Adiponectin mRNA expression amount (ratio to 36B4)", "setting": "adiponectin mRNA; aurapten 5 μM", "result": "161.4 ± 40.2"}, {"measurement": "aP2 mRNA expression amount (ratio to 36B4)", "setting": "aP2 mRNA; aurapten 1 μM", "result": "208.2 ± 23.4"}, {"measurement": "aP2 mRNA expression amount (ratio to 36B4)", "setting": "aP2 mRNA; aurapten 5 μM", "result": "202.7 ± 19.3"}]}]}
